Data from BindingDB's records for patent US12030880 (Chia Tai Tianqing Pharmaceutical Group, 2024).

Tests used:
[1] = target: T1, Bromodomain-containing protein 4 [44-168] (Human, UniProt O60885); experiment: In Vitro BRD4 (BD1) Enzymatic Activity Assay
T1 construct: 44-168
Protocol: In the present application, IC50 values of the compounds in inhibiting BRD4 (BD1) enzyme binding reaction were determined by homogeneous time resolved fluorescence (HTRF). A compounds was serially diluted 5-fold with 100% DMSO starting from 0.2 mM (7 concentrations in total), and then 2 μL of the compound at each concentration was added to 48 μL of a reaction buffer (20 mM HEPES pH 7.5, 150 mM NaCl, 5 mM DTT, 0.005% Tween 20, and 100 μg/mL BSA) for dilution, and mixed well. 2.5 μL of the resulting mixture was added to a 384-well plate (OptiPlate-384, purchased from PerkinElmer), then 5 μL of GST-BRD4 (BD1, 44-168 aa) (final concentration: 1 nM) was added, and the resulting mixture was centrifuged, and fully mixed. 2.5 μL of a short peptide Biotin-AHA-SGRGK(Ac)GGK(Ac)GLGK(Ac)GGAK(Ac) RHRKV (final concentration: 100 nM) was then added to initiate the reaction (total reaction volume: 10 μL). […] After being incubated in the incubator for another 1 hour, the fluorescence values (excited at 320 nm, emitted light at 665 nm and 620 nm being detected, and the ratio of the two being the enzyme binding signal) were read on Envision (purchased from PerkinElmer).

[2] = target: T2, Bromodomain-containing protein 4 [349-460] (Homo sapiens, UniProt O60885); experiment: In Vitro BRD4 (BD2) Enzymatic Activity Assay
T2 construct: 349-460
Protocol: In the present application, IC50 values of the compounds in inhibiting BRD4 (BD2) enzyme binding reaction were determined by homogeneous time resolved fluorescence (HTRF). A compound was serially diluted 5-fold with 100% DMSO starting from 1 mM (7 concentrations in total), and then 2 μL of the compound at each concentration was added to 18 μL of a reaction buffer (20 mM HEPES pH 7.5, 150 mM NaCl, 5 mM DTT, 0.005% Tween 20, and 100 μg/mL BSA) for dilution. After being mixed well, 2 μL of the compound at each concentration was added to 48 μL of the above reaction buffer for dilution, and mixed well (final concentration of the compound in DMSO: 0.1%). 2.5 μL of the resulting mixture was added to a 384-well plate (OptiPlate-384, purchased from PerkinElmer), then 5 μL of GST-BRD4 (BD2, 349-460 aa) (final concentration: 2 nM) was added, and the resulting mixture was centrifuged, and fully mixed. 2.5 μL of a peptide Biotin-AHA-SGRGK(Ac)GGK(Ac)GLGK(Ac)GGAK(Ac) RHRKV (final concentration: 200 nM) was then added to initiate the reaction (total reaction volume: 10 μL). […] After being incubated in the incubator for another 1 hour, the fluorescence values (excited at 320 nm, emitted light at 665 nm and 620 nm being detected, and the ratio of the two being the enzyme binding signal) were read on Envision (purchased from PerkinElmer).

| SMILES | IC50 [1] [nM] | IC50 [2] [nM] |
| --- | --- | --- |
| CCNC(=O)c1cc2c(-c3cc(N=S(C)(C)=O)ccc3Oc3ccc(S(C)(=O)=O)cc3)cn(C)c(=O)c2[nH]1 [US12030880, Example 1] | 14.7 | 0.51 |
| Cn1cc(-c2cc(N=S(C)(C)=O)ccc2Oc2ccc(C#N)cc2F)c2cc[nH]c2c1=O [US12030880, Example 2] | 1.4 | 0.98 |
